In patent publication US9629856B2, “Compositions and methods for the treatment of skin diseases and disorders using antimicrobial peptide sequestering compounds” (Anteis SA, priority 2010, dated 2017):

System: Rosacea patients
Experiment: Clinical study with rosacea patients
Details: human, in vivo
Method: The following assessments or evaluations were performed before the treatment (Visit 1) and during the treatment period after about 2 weeks (Visit 2), about 4 weeks (Visit 3) and about 8 weeks (Visit 4): Tolerability including burning/stinging/tingling, pruritis, dryness, scaling/peeling and atrophy were evaluated of the face by the investigator (i.e., dermatologist) according to the following scale: 0=none, 1=mild, 2=moderate, 3=severe. Furthermore, any adverse events experienced by subject during the study period, whether related to the treatment or not, were recorded. Assessment of overall skin conditions of the face was performed by the investigator (i.e., dermatologist) according to the following scoring system: [table] Count of total number of inflammatory lesions (papules and pustules) on the face by the investigator (i.e., dermatologist). Evaluation of the severity of both redness/erythema and telangiectasia on the face by the investigator (i.e., dermatologist) according to the following scale: [table] […] Clinical photographs were taken at all visits utilizing standardized conditions for all subjects. […] In case possible, cross-polarized, parallel-polarized and visible light images were acquired along with both blue fluorescence and ultraviolet fluorescence images.

With “Hydroxypropyl Starch Phosphate [Structure XL]” the immunotoxic effects was “no evidence of immunotoxic effects”.
